Measurements reported in patent US8802865B2 (Janssen Pharmaceutica, NV, priority 2006, dated 2014).

Tests used:
[1] = tested on: ventral prostate; assay: Ventral Prostate Weight in vivo Assay (inhibition of testosterone-enhanced tissue weight); parameters: key: “active” in the Table below if the non weight adjusted prostate weight was ≦40 mg or the % Inhibition prostate weight, body weight adjusted was ≧40% @ 2 mg/day dosage; listed herein as “inactive” as they did not meet the specified criteria defined above; conditions: castrated male Sprague Dawley rats, test compound usually orally once daily with testosterone propionate s.c.; ventral prostate wet weight; criteria at 2 mg/day dosage
Description: (§1) Ventral Prostate and Levator Ani Weight in vivo Assay
(§2) Immature (approximately 50 g) castrated male Sprague Dawley rats (Charles River) were treated once daily for five days with test compound (usually given orally at 40 mg/kg in a volume of 0.3 mL, in 30% cyclodextrin or 0.5% methylcellulose vehicle) and with testosterone propionate (given subcutaneously by injection at the nape of the neck at 2 mg/kg, in a volume of 0.1 mL in sesame oil). On the sixth day, the rats were euthanized by asphyxiation in carbon dioxide. Ventral prostates and levator ani were removed and their wet weights determined. Test compound activity was determined as the percent inhibition of testosterone-enhanced tissue weights, with a vehicle-treated control group set to zero percent and a testosterone alone-treated control group set to 100%.
(§3) Mature (150- to 200-g) castrated male Sprague Dawley rats (Charles River) are similarly tested according to the procedure described above. The rats were dosed for two weeks, with 0.4 mg/kg testosterone propionate used as the positive control.
(§4) Representative compounds of the present invention were tested according to the procedure described above, with results as listed in Table 3 below. For effect on prostate—i.e. an antagonist—a test compound is listed as “active” in the Table below if the non weight adjusted prostate weight was ≦40 mg or the % Inhibition prostate weight, body weight adjusted was ≧40% @ 2 mg/day dosage. For effect on levator ani—i.e. an agonist—a test compound is listed as “active” in the Table below if the non weight adjusted levator ani weight was ≧40 mg or the % Stimulation levator ani weight, body weight adjusted was ≧40% at 2 mg/day dosage.

[2] = tested on: levator ani; assay: Levator Ani Weight in vivo Assay (stimulation of levator ani weight); parameters: key: “active” in the Table below if the non weight adjusted levator ani weight was ≧40 mg or the % Stimulation levator ani weight, body weight adjusted was ≧40% at 2 mg/day dosage; listed herein as “inactive” as they did not meet the specified criteria defined above; conditions: castrated male Sprague Dawley rats, test compound usually orally once daily with testosterone propionate s.c.; levator ani wet weight; criteria at 2 mg/day dosage
Description: as §1, §2, §3, §4

[3] = tested on: levator ani; assay: as above; parameters: key: “active” in the Table below if the non weight adjusted prostate weight was ≦40 mg or the % Inhibition prostate weight, body weight adjusted was ≧40% @ 2 mg/day dosage; listed herein as “inactive” as they did not meet the specified criteria defined above; conditions: castrated male Sprague Dawley rats, test compound usually orally once daily with testosterone propionate s.c.; levator ani wet weight; criteria at 2 mg/day dosage
Description: as §1, §2, §3, §4

Row | SMILES | Prostate antagonist [1] | L.A. agonist [2] | L.A. agonist [3]
1 | C=C=CC(O)(c1nc2cc(Cl)c(Cl)cc2[nH]1)C(F)(F)F (single isomer, unassigned; (+)) [Compound 31, (+)-Enantiomer of 2-(5,6-Dichloro-1H-benzoimidazol-2-yl)-1,1,1-trifluoro-penta-3,4-dien-2-ol] | active | active | 
2 | C=CC(O)(c1nc2cc(Cl)c(Cl)cc2[nH]1)C(F)(F)F (single isomer, unassigned; (+)) [Compound 43, (+)-2-(5,6-dichloro-1H-benzoimidazol-2-yl)-1,1,1-trifluoro-but-3-en-2-ol] | inactive | active | 
3 | C#CCC(O)(c1nc2cc(Cl)c(Cl)cc2n1C)C(F)(F)F (single isomer, unassigned; (-)) [Compound 37, (−)-Enantiomer of 2-(5,6-Dichloro-1-methyl-1H-benzoimidazol-2-yl)-1,1,1-trifluoro-pent-4-yn-2-ol] | inactive | active | 
4 | C#CCC(O)(c1nc2cc(Cl)c(Cl)cc2[nH]1)C(F)(F)F (stereo not drawn) [Compound 2, 2-(5,6-Dichloro-1H-benzoimidazol-2-yl)-1,1,1-trifluoro-pent-4-yn-2-ol] | active | active | 
5 | C=C=CC(O)(c1nc2cc(Cl)c(Cl)cc2[nH]1)C(F)(F)F (stereo not drawn) [Compound 3, 2-(5,6-Dichloro-1H-benzoimidazol-2-yl)-1,1,1-trifluoro-penta-3,4-dien-2-ol] | active | active | 
6 | C=CC(O)(c1nc2cc(Cl)c(Cl)cc2[nH]1)C(F)(F)F (stereo not drawn) [Compound 4, 2-(5,6-Dichloro-1H-benzoimidazol-2-yl)-1,1,1-trifluoro-but-3-en-2-ol] | active | active | 
7 | N#CCC(O)(c1nc2cc(Cl)c(Cl)cc2[nH]1)C(F)(F)F (stereo not drawn) [Compound 7, 3-(5,6-Dichloro-1H-benzoimidazol-2-yl)-4,4,4-trifluoro-3-hydroxy-butyronitrile] | inactive | active | 
8 | C/C=C\C(O)(c1nc2cc(Cl)c(Cl)cc2[nH]1)C(F)(F)F (stereo not drawn) [Compound 15, 2-(5,6-Dichloro-1H-benzoimidazol-2-yl)-1,1,1-trifluoro-cis-pent-3-en-2-ol] | active | active | 
9 | C=CCC(O)(c1nc2cc(C#N)c(C(F)(F)F)cc2[nH]1)C(F)(F)F (stereo not drawn) [Compound 38, 2-(1-Hydroxy-1-trifluoromethyl-but-3-enyl)-6-trifluoromethyl-1H-benzoimidazole-5-carbonitrile] | active | active | 
10 | C=C=C(C)C(O)(c1nc2cc(C#N)c(C(F)(F)F)cc2[nH]1)C(F)(F)F (stereo not drawn) [Compound 41, 2-(1-Hydroxy-2-methyl-1-trifluoromethyl-buta-2,3-dienyl)-6-trifluoromethyl-1H-benzoimidazole-5-carbonitrile] | active |  | inactive
11 | CC(C)=C(C)C(O)(c1nc2cc(Cl)c(Cl)cc2[nH]1)C(F)(F)F (stereo not drawn) [Compound 42, 2-(5,6-Dichloro-1H-benzoimidazol-2-yl)-1,1,1-trifluoro-3,4-dimethyl-pent-3-en-2-ol] | active |  | inactive
12 | FC(F)(F)C1(c2nc3cc(Cl)c(Cl)cc3[nH]2)C=CCO1 (stereo not drawn) [Compound 45, 5,6-Dichloro-2-(2-trifluoromethyl-2,5-dihydro-furan-2-yl)-1H-benzoimidazole] | inactive | active | 
13 | FC(F)(F)C1(c2nc3cc(Cl)c(Cl)cc3[nH]2)CCCO1 (stereo not drawn) [Compound 46, 5,6-Dichloro-2-(2-trifluoromethyl-tetrahydro-furan-2-yl)-1H-benzoimidazole] | active | active | 
14 | FC(F)(F)C1(c2nc3cc(Cl)c(Cl)cc3n2Cc2ccccn2)OCCO1 [Compound 48] | inactive |  | inactive
15 | OCC1COC(c2nc3cc(Cl)c(Cl)cc3[nH]2)(C(F)(F)F)O1 (stereo not drawn) [Compound 49, [2-(5,6-Dichloro-1H-benzoimidazol-2-yl)-2-trifluoromethyl-[1,3]dioxolan-4-yl]-methanol] | active |  | inactive
16 | FC(F)(F)C1(c2nc3cc(Cl)c(Cl)cc3[nH]2)OCCCO1 [Compound 51, 5,6-Dichloro-2-(2-trifluoromethyl-[1,3]dioxan-2-yl)-1H-benzimidazole] | active |  | inactive
17 | N#Cc1cc2nc(C3(C(F)(F)F)OCCO3)[nH]c2cc1C(F)(F)F [Compound 59, 6-Trifluoromethyl-2-(2-trifluoromethyl-[1,3]dioxolan-2-yl)-1H-benzimidazole-5-carbonitrile] | active |  | inactive
18 | FC(F)(F)C1(c2nc3cc(Cl)c(Cl)cc3[nH]2)NCCO1 (stereo not drawn) [Compound 61, 5,6-Dichloro-2-(2-trifluoromethyl-oxazolidin-2-yl)-1H-benzimidazole] | active |  | inactive
